Columns and labels:
[1] = target: T1, catechol O-methyl transferase (COMT) (Homo sapiens, UniProt P21964); test: 4-MeOE2 formation in MCF-7 cells/lysate; […] decrease at […]; assay type: cell-based; conditions: MCF7
T1 construct: endogenous COMT in MCF-7 whole cell lysate
T1 sequence (P21964 1-271): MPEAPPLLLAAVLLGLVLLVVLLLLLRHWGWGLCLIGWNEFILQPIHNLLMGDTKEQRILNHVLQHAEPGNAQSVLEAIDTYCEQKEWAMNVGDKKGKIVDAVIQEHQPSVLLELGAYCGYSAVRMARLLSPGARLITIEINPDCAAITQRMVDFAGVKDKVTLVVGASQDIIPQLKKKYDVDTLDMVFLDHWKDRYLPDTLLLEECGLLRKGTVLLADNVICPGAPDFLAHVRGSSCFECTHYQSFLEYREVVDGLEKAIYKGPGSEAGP

[2] = target: T2, catechol O-methyl transferase (COMT) (Homo sapiens, UniProt P21964); test: inhibition of recombinant COMT O-methylation of 4-OHE2 by HPLC-DAD (IC50 […]); also a substrate (Km […]); assay type: biochemical
T2 construct: recombinant human soluble COMT, hexahistidine-tagged
T2 sequence (P21964 51-271 limits assumed): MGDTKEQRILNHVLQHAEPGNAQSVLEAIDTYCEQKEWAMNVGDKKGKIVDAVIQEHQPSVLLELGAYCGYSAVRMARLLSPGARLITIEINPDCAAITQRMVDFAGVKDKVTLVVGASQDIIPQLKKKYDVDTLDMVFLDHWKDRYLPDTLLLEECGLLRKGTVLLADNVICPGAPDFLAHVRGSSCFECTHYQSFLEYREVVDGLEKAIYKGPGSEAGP

inhibition at 10 µM [1] [%]	Ki [2] [µM]	SMILES
88		O=C(c1cc(O)c(O)c([N+](=O)[O-])c1)c1ccccc1F [Ro 41-0960]
	15.7	C[C@H](Cc1ccc(O)c(O)c1)[C@H](C)Cc1ccc(O)c(O)c1 [compound 1, 4-[4-(3,4-dihydroxyphenyl)-2,3-dimethylbutyl] benzene-1,2-diol]

— publication PMC8038350, “Nordihydroguaiaretic Acid as a Novel Substrate and Inhibitor of Catechol O-Methyltransferase Modulates 4-Hydroxyestradiol-Induced Cyto- and Genotoxicity in MCF-7 Cells” (Molecules, 2021)
